The pIC50 is the IC50 on a negative log10 scale, so that one unit is a factor of ten.

pIC50: −log10 of the molar value. Converted amounts (≈) assume the structure as drawn.

One data set deals with Haemophilus influenzae. The data set is described as follows: Antibacterial activity against Haemophilus influenzae ATCC 43095 assessed as reduction in bacterial growth incubated for 20 hrs. It is filed as functional.
For data set [1], the target named is T1, 1-deoxy-D-xylulose-5-phosphate synthase (Haemophilus influenzae (strain 86-028NP), UniProt Q4QKG6).
T1 sequence (Q4QKG6 whole entry): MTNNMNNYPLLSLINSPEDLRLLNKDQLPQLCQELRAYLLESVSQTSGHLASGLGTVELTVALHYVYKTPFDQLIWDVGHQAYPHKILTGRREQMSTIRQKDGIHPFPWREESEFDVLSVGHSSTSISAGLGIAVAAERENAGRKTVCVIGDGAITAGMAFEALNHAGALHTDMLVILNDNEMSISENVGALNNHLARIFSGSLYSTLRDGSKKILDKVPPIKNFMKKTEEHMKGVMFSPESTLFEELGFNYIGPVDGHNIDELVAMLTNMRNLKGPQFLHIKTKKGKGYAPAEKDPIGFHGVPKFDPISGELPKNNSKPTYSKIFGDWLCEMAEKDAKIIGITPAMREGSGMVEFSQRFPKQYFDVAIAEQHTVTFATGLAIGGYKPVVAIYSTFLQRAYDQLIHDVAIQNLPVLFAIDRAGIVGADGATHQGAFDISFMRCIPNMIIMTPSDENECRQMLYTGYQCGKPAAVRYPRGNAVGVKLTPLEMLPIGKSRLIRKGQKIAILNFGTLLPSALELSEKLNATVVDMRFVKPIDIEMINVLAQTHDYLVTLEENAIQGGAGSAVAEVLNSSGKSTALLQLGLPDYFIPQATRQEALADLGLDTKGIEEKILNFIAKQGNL
The data set is described as follows: Inhibition of Haemophilus influenzae recombinant DXPS.

Data set [2] in a line: Permeability of the compound assessed as absorbed fraction incubated for 10 hrs by PAMPA assay. The data set is classed as ADME.
The test system of another data set is Escherichia coli. The data set is described as follows: Antibacterial activity against Escherichia coli W3110 assessed as reduction in bacterial growth incubated for 20 hrs. It is filed as functional.
Data set [3] can be described thus: Inhibition of N-terminal his-tagged Chlamydomonas DXPS.
The test system of a further data set is HFF. Nature of the data set: Cytotoxicity against human HFF cells assessed as inhibition of cell proliferation upto 1000 uM incubated for 96 hrs by SYBR-safe assay. The data set is classed as toxicity, cell-based.

On to `CC(C)(C(=O)O)C(=O)N(O)Cc1ccccc1Cl`, for which the MIC in the data set with Haemophilus influenzae came to 117 µM (≈ 31.8 µg/mL).

Regarding `CC1(C)C(=O)ON(Cc2ccccc2Cl)C1=O` [KETOCLOMAZONE], the results for the pIC50 in data set [1] and in data set [3] were 4.55 and 4.00, respectively. Besides, the permeability in data set [2] is listed as 47%. Besides, the MIC in the data set on Escherichia coli was 3100 µM (≈ 786 µg/mL); with Haemophilus influenzae, 31 µM (≈ 7.86 µg/mL). For the same compound, the Activity entry with HFF is reported as “Non-Toxic”.
